For eight compounds, SHP2% degradation results are on record in patent US20260144788A1, “COMPOUND FOR SHP2 PROTEIN DEGRADATION AND MEDICAL USES THEREOF” (UBIX THERAPEUTICS, INC., priority 2022, published 2026).

The target of the test is T1, SHP2 protein (Homo sapiens, UniProt Q06124).
T1 sequence (Q06124 1-593): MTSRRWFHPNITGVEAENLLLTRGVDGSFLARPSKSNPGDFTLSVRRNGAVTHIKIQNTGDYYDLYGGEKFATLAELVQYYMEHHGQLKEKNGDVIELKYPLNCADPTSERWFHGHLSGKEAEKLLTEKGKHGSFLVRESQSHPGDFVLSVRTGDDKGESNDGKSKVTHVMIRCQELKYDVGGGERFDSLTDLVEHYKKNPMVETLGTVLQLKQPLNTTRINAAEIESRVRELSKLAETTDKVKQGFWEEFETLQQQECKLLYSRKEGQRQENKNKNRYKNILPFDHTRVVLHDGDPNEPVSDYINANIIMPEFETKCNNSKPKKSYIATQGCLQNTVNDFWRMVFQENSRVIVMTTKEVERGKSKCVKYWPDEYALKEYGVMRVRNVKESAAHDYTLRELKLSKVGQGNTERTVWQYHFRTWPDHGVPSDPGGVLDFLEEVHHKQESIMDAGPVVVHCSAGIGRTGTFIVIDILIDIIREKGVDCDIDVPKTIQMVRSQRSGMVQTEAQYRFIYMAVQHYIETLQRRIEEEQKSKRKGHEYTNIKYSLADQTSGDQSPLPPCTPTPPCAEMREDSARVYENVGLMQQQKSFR
Put plainly: Measurement of SHP2 protein degradation in NCI-H358 cells (western blotting). The format is cell-based. Set-up: endogenous in cells; host or cells: NCI-H358. The conditions noted are these: harvested after 24 hours. The method, then:
H358 cells were treated with the synthesized Example compounds, and the amount of SHP2 protein present in the cells was measured using western blotting detection. The protocol for the experiment using H358 cells is as follows.
[Culture]H358 cells were resuspended in RPMI1640 with 25 mM HEPES (Hyclone, SH30255.01), 10% FBS (Hyclone, SV30207.02), 1% Penicillin-streptomycin (Welgene, LS 202-02) media, seeded at 3×10^5/mL in 12-well plates (1 mL each), and cultured for 24 hours.
[Compound treatment] Before compound treatment, the media was changed to 1 mL media, and then the 12-well plate was treated as follows. The 10 mM stock dissolved in DMSO was serially diluted 1/100 or 1/10 with the media, and the compound was treated to the cells at a final concentration of 0.001, 0.01, and 0.1 μM, and harvested after 24 hours. For the negative control group, DMSO diluted 1/1000 in the media was added (1 μL DMSO+999 μL media).
[Harvest]24 hours after compound treatment, each well was scraped with a cell lifter (SPL, 90040), pipetted with a 1 mL pipette, collected in a 1.5 mL microtube, and centrifuged (500 g, 5 min, 4° C.). The supernatant was removed, washed with PBS, and centrifuged again (500 g, 5 min, 4° C.). Afterwards, the supernatant was removed to prepare a pellet.
[Cell lysis and sample preparation] Lysis buffer was prepared as follows. RIPA buffer (Biosesang, RC2038-050-00)+0.5 mM PMSF (SIGMA, P7626)+1× Protease/Phosphatase Inhibitor (Cell signaling, 5872S) were added at 30 μL per tube, vortexed, and incubated on ice for 30 minutes. Afterwards, sonication was performed (10 sec pulse, 30 sec rest, 5 cycles, 70% amplification) and centrifugation was performed (15,000 g, 15 min, 4° C.), and only the supernatant was transferred to a microtube. A 96-well plate was diluted to 1/4 with 7.5 μL of RIPA buffer and 2.5 μL of sample, and 200 μL each was added after mixing A and B of the BCA Protein Assay Kit (iNtRON, 21071) in a ratio of 50:1. The plate was incubated at 37° C. for 30 minutes and left at room temperature for 10 minutes. After shaking for 10 seconds with a SYNERGY H1 microplate reader from BioTek, the absorbance was measured at 562 nm. The protein was quantified using the measured value to make a sample, which was then incubated at 70° C. for 10 minutes. The sample buffer used here was a mixture of NuPAGE or Bolt 4× sample buffer (Invitrogen) and each 10× sample reducing agent depending on the gel to be used, and RIPA buffer was used for protein dilution.
[Western blotting detection] Equal amounts of samples were loaded onto NuPAGE or Bolt Bis-tris 4-12% gradient gel and run (200 V, 35 min). This was transferred to […] NC membrane using Trans-blot Turbo (BIO-RAD) (1.3 A constant, 25 V limit, 15 min), and blocked with 5% skim milk/0.2% TBST for 45 min at room temperature. Anti-SHPTP2 Mouse (1:1,000 in 5% skim milk/0.2% TBST, size: 70 kDa, Santa cruz sc-7384) and Anti-GAPDH Rabbit (1:2,000 in 5% skim milk or 5% BSA/0.2% TBST, size: 37 kDa, CST #2118) were added and incubated overnight at 4° C. After washing three times with 0.2% TBST washing buffer for 5 minutes each, secondary antibodies Anti-Mouse IgG (1:5,000 in 5% skim milk/0.2% TBST, CST) and IRDye® 680RD Goat anti-Rabbit IgG Secondary Antibody (1:10,000 in 5% skim milk/0.2% TBST, LI-COR 926-68071) were added, and incubated on a rocker at room temperature for 45 minutes. The resultants were washed five times with 0.2% TBST washing buffer for 5 minutes each, and detected using LI-COR's Odyssey. GAPDH was detected with a 700 nm channel, and SHPTP2 was detected using SuperSignal West Pico PLUS Chemiluminescent Substrate.
(Immunoblotting shows a protein as a band on a membrane.)

As to `Cc1ncsc1-c1ccc(CNC(=O)[C@@H]2C[C@@H](O)CN2C(=O)[C@@H](NC(=O)C2(F)CC2)C(C)(C)C)c(OC2CCN(CC3(O)CCN(c4nccc(Sc5cnc(N6CCC(C)(CN)CC6)cn5)c4Cl)CC3)CC2)c1` [Example 10, (2S,4R)—N-(2-((1-((1-(4-((5-(4-(aminomethyl)-4-methylpiperidin-1-yl)pyrazin-2-yl)thio)-3-chloropyridin-2-yl)-4-hydroxypiperidin-4-yl)methyl)piperidin-4-yl)oxy)-4-(4-methylthiazol-5-yl)benzyl)-1-((S)-2-(1-fluorocyclopropane-1-carboxamido)-3,3-dimethylbutanoyl)-4-hydroxypyrrolidine-2-carboxamide], the SHP2% degradation reads like this: (0.01 μM) −8.0%; (0.1 μM) 93.9%.

Regarding `Cc1ncsc1-c1ccc(CNC(=O)[C@@H]2C[C@@H](O)CN2C(=O)[C@@H](NC(=O)C2(F)CC2)C(C)(C)C)c(O[C@H]2CC[C@H](C(=O)N3CC(Nc4cccc(Sc5cnc(N6CCC7(CC6)Cc6ncccc6[C@H]7N)cn5)c4Cl)C3)CC2)c1` [Example 15, (2S,4R)—N-(2-(((1R,4S)-4-(3-((3-((5-((S)-5-amino-5,7-dihydrospiro[cyclopenta[b]pyridine-6,4′-piperidin]-1′-yl)pyrazin-2-yl)thio)-2-chlorophenyl)amino)azetidine-1-carbonyl)cyclohexyl)oxy)-4-(4-methylthiazol-5-yl)benzyl)-1-((S)-2-(1-fluorocyclopropane-1-carboxamido)-3,3-dimethylbutanoyl)-4-hydroxypyrrolidine-2-carboxamide], the SHP2% degradation is recorded as 93.5% (0.01 μM) and 99.6% (0.1 μM).

`Cc1ncsc1-c1ccc(CNC(=O)[C@@H]2C[C@@H](O)CN2C(=O)[C@@H](NC(=O)C2(F)CC2)C(C)(C)C)c(O[C@H]2CC[C@H](C(=O)N3CC(Nc4nccc(Sc5cnc(N6CCC7(CC6)CO[C@@H](C)[C@H]7N)cn5)c4Cl)C3)CC2)c1` [Example 22, (2S,4R)—N-(2-(((1R,4S)-4-(3-((4-((5-((3S,4S)-4-amino-3-methyl-2-oxa-8-azaspiro[4.5]decan-8-yl)pyrazin-2-yl)thio)-3-chloropyridin-2-yl)amino)azetidine-1-carbonyl)cyclohexyl)oxy)-4-(4-methylthiazol-5-yl)benzyl)-1-((S)-2-(1-fluorocyclopropane-1-carboxamido)-3,3-dimethylbutanoyl)-4-hydroxypyrrolidine-2-carboxamide]: the SHP2% degradation (0.01 μM) was determined as 95.7% and the SHP2% degradation (0.1 μM) turned out to be 97.1%.

As for `Cc1ncsc1-c1ccc(CNC(=O)[C@@H]2C[C@@H](O)CN2C(=O)[C@@H](NC(=O)C2(F)CC2)C(C)(C)C)c(O[C@H]2CC[C@H](C(=O)N3CCC(Nc4nccc(Sc5cnc(N6CCC7(CC6)CO[C@@H](C)[C@H]7N)cn5)c4Cl)CC3)CC2)c1` [Example 25, (2S,4R)—N-(2-(((1R,4S)-4-(4-((4-((5-((3S,4S)-4-amino-3-methyl-2-oxa-8-azaspiro[4.5]decan-8-yl)pyrazin-2-yl)thio)-3-chloropyridin-2-yl)amino)piperidine-1-carbonyl)cyclohexyl)oxy)-4-(4-methylthiazol-5-yl)benzyl)-1-((S)-2-(1-fluorocyclopropane-1-carboxamido)-3,3-dimethylbutanoyl)-4-hydroxypyrrolidine-2-carboxamide], the SHP2% degradation reads like this: (0.01 μM) 94.2%; (0.1 μM) 97.0%.

Turning to `CC(=O)N[C@H](C(=O)N1C[C@H](O)C[C@H]1C(=O)NCc1ccc(-c2scnc2C)cc1O[C@H]1CC[C@H](C(=O)N2CC(Nc3cccc(Sc4cnc(N5CCC(C)(N)CC5)cn4)c3Cl)C2)CC1)C(C)(C)C` [Example 28, (2S,4R)-1-((S)-2-acetamido-3,3-dimethylbutanoyl)-N-(2-(((1R,4S)-4-(3-((3-((5-(4-amino-4-methylpiperidin-1-yl)pyrazin-2-yl)thio)-2-chlorophenyl)amino)azetidine-1-carbonyl)cyclohexyl)oxy)-4-(4-methylthiazol-5-yl)benzyl)-4-hydroxypyrrolidine-2-carboxamide], the SHP2% degradation by setting is: (0.01 μM) 86.9%; (0.1 μM) 98.5%.

On to `CC(=O)N[C@H](C(=O)N1C[C@H](O)C[C@H]1C(=O)NCc1ccc(-c2scnc2C)cc1O[C@H]1CC[C@H](C(=O)N2CC(Nc3cccc(Sc4cnc(N5CCC6(CC5)Cc5ncccc5[C@H]6N)cn4)c3Cl)C2)CC1)C(C)(C)C` [Example 31, (2S,4R)-1-((S)-2-acetamido-3,3-dimethylbutanoyl)-N-(2-(((1R,4S)-4-(3-((3-((5-((S)-5-amino-5,7-dihydrospiro[cyclopenta[b]pyridine-6,4′-piperidin]-1′-yl)pyrazin-2-yl)thio)-2-chlorophenyl)amino)azetidine-1-carbonyl)cyclohexyl)oxy)-4-(4-methylthiazol-5-yl)benzyl)-4-hydroxypyrrolidine-2-carboxamide], for which the SHP2% degradation (0.01 μM) worked out at 76.3% and the SHP2% degradation (0.1 μM) amounted to 99.4%.

In the case of `CC(=O)N[C@H](C(=O)N1C[C@H](O)C[C@H]1C(=O)NCc1ccc(-c2scnc2C)cc1O[C@H]1CC[C@H](C(=O)N2CC(N3CCc4c(Sc5cnc(N6CCC7(CC6)CO[C@@H](C)[C@H]7N)cn5)cccc43)C2)CC1)C(C)(C)C` [Example 32, (2S,4R)-1-((S)-2-acetamido-3,3-dimethylbutanoyl)-N-(2-(((1R,4S)-4-(3-(4-((5-((3S,4S)-4-amino-3-methyl-2-oxa-8-azaspiro[4.5]decan-8-yl)pyrazin-2-yl)thio)indolin-1-yl)azetidine-1-carbonyl)cyclohexyl)oxy)-4-(4-methylthiazol-5-yl)benzyl)-4-hydroxypyrrolidine-2-carboxamide], the SHP2% degradation by setting is: (0.01 μM) 54.4%; (0.1 μM) 98.5%.

Turning to `CC(=O)N[C@H](C(=O)N1C[C@H](O)C[C@H]1C(=O)NCc1ccc(-c2scnc2C)cc1O[C@H]1CC[C@H](C(=O)N2CCC(N3CCc4c(Sc5cnc(N6CCC7(CC6)CO[C@@H](C)[C@H]7N)cn5)cccc43)CC2)CC1)C(C)(C)C` [Example 33, (2S,4R)-1-((S)-2-acetamido-3,3-dimethylbutanoyl)-N-(2-(((1R,4S)-4-(4-(4-((5-((3S,4S)-4-amino-3-methyl-2-oxa-8-azaspiro[4.5]decan-8-yl)pyrazin-2-yl)thio)indolin-1-yl)piperidine-1-carbonyl)cyclohexyl)oxy)-4-(4-methylthiazol-5-yl)benzyl)-4-hydroxypyrrolidine-2-carboxamide], the SHP2% degradation reads like this: (0.01 μM) 96.6%; (0.1 μM) 99.1%.
